# Patent US10987363B2, “Fluticasone furoate in the treatment of COPD” (GLAXOSMITHKLINE INTELLECTUAL PROPERTY DEVELOPMENT LIMITED, priority 2014, dated 2021)
# How the values were obtained:
# COPD patients [1] = test: Re-analysis of ISOLDE 3-year clinical study: rate of decline of FEV1 by baseline blood eosinophil count; type: in vivo, human; conditions: 500 mcg twice daily
# Text: Methods: The results of ISOLDE (Burge P S et al BMJ 2000; 320:1297-303), a 3-year study of the effects of fluticasone propionate (FP) 500 mcg twice daily on rate of decline of FEV1 in well-characterised COPD patients were re-analysed by baseline blood eosinophil count (≥2%, <2%).
# COPD patients [2] = conditions: pre-specified analysis of ISOLDE, all patients; 500 mcg twice daily, 3 years; cited from earlier work
smiles,measurement,setting,value
"CCC(=O)O[C@]1(C(=O)SCF)[C@H](C)C[C@H]2[C@@H]3C[C@H](F)C4=CC(=O)C=C[C@]4(C)[C@@]3(F)[C@@H](O)C[C@@]21C [FP, fluticasone propionate]",difference in rate of decline of FEV1 vs. placebo,"COPD patients [1]; patients with eosinophil count <2%, 3 years",no difference
same,slowing of the rate of decline of lung function compared with placebo,"COPD patients [1]; patients with eosinophil count ≥2%, p=0.001",38 mL per year
same,effect on the rate of decline of FEV1 vs. placebo,COPD patients [2],no effect
